How the values were obtained:
[1] = Plasma stability, 24 h incubation with plasma (HPLC); format: in vitro ADME
Description: Zn8_DM1: 0H VS. 24H in plasma.
Zn10_DM4: 0H VS. 24H in plasma.
Supporting Figure S1. Incubation of Linker-drug 3 and 4, conjugates Zn8_DM1 and
Zn10_DM4, DM1 and DM4 with plasma for 24 hrs. HPLC condition is listed below. […]

[2] = tested on: HCC1806 triple-negative breast cancer cells; assay: MTS cell viability assay (72 h); format: cell-based, human; conditions: Homo sapiens, HCC1806; 72 h incubation, MTS; read-out: IC50, cytotoxicity against HCC1806 cells
Description: HCC1806 cells were grown in RPMI 1640 medium, and MTS assays were performed to check cell viability. Cells (2500–3000 cells/well) were grown in flat-bottomed 96-well plates for 24 h, and then serial dilutions of the compound were added, and cells were allowed to incubate for a further 72 h. At the end of the 72-h incubation period, the medium was removed, and 100 μL of a solution including a mixture of MTS and PMS was added. The cells were incubated for 1.5 h at 37 °C in a humidified incubator with 5% CO2 to allow viable cells to convert tetrazolium salts to formazan. Conversion to formazan was measured by absorbance (490 nm) using a BioTek PowerWave-X absorbance microplate meter. The data collected were normalized using a DMSO-treated control (100% viability) and a background control (0% viability) to verify growth inhibition.

[3] = tested on: HCC1806 human triple-negative breast cancer tumors; assay: HCC1806 xenograft tumor efficacy; format: in vivo, female nude mice; conditions: 0.3 mg/kg i.v. twice weekly for 2 weeks
Description: Cancer cells suspended in RPMI 1640 medium (11835-030, Thermo Fisher Scientific, Waltham, MA, USA) were mixed with Matrigel™ (356237, BD Biosciences, Franklin Lakes, NJ, USA) in a 1:1 ratio. Human triple-negative breast cancer HCC1806 (1 × 10^6 cells) cells were inoculated subcutaneously into the left flank of 6-week-old female nude mice (BioLASCO Taiwan, Taipei, Taiwan) using a 1 mL syringe with a 24G needle (AN-2425R, Terumo Medical Corp., Tokyo, Japan). Tumor dimensions were measured twice weekly using electronic calipers (FOW54-200-777, PRO-MAX), and the volume of tumor grown subcutaneously (mm^3) was calculated by the formula Volume = (length × width^2)/2. A combination of 10% DMA/20% Cremophor EL/70% 5% dextrose injection (D5W) was formulated to treat HCC1806 xenograft tumors. Mice with HCC1806 tumors were grouped and administered the indicated dosing regimen of 1 mg/kg for the conjugate and 0.3 mg/kg for the cytotoxic payloads DM1 and DM4 twice-weekly (day 1 and day 4) for 2 weeks when the mean tumor volume was approximately 200–250 mm^3 or 850–900 mm^3 (large tumors). The conjugate dose of 2 mg/kg was administered weekly for the large tumor study. The body weight and tumor volume of mice were measured twice weekly. In addition, a previously reported oncogene-induced, sorafenib-resistant HCC mouse model was used in the current study to examine the antitumor activities of synthesized compounds. Briefly, plasmids including transposase (pCMV(CAT)T7-SB100), human Akt1, and luciferase (pKT2/CLP-AKT-2A-OVA-HBc-HBs-LUC) and the N-Ras V12 mutant (pT/Caggs-NRASV12) were hydrodynamically injected (HDI) and the liver was monitored for the appearance of HCC. HCC mice with a total flux of more than 1 × 10^9 photons/s from IVIS imaging were used as treatment conjugates. The indicated conjugate was administered intravenously at 1 mg/kg 3 times per week over 2 weeks. IVIS imaging was repeatedly performed to follow tumor progression, and tumor tissue from treated HCC mice was collected for histological examination and RNA extraction after administration.

[4] = PS SPR binding assay (Biacore T200, L1 chip); conditions: DOPC/DOPS (3:1, v/v) liposomes on L1 chip, 25 °C
Description: Phospholipids, 1,2-dioleoyl-sn-glycero-3-phosphocholine (DOPC) and 1,2-dioleoyl-sn-glycero-3-[phosphate-L-serine] (DOPS) were obtained as chloroform solutions from Avanti Polar Lipids (Alabaster, AL, USA). These stock solutions were mixed in the specified proportions. A 0.4 mL aliquot of the lipid solution at a 10 mg/mL concentration was added to a round bottom flask and evaporated under a stream of N2 to provide a thin lipid film. The lipid films were rehydrated in PBS buffer for at least 1 h at room temperature. The resulting suspension was extruded through a 100 nm polycarbonate filter using an Avanti MiniExtruder according to the manufacturer’s instructions. Zeta potential (ZP) and liposome size distribution were recorded by dynamic light scattering (DLS) and microelectrophoresis using a Zetasizer Nano ZS instrument. The binding kinetics between conjugates and liposomes were recorded at 25 °C using a Biacore T200 biosensor equipped with an L1 sensor chip (GE Healthcare, Chicago, IL, USA). The new sensor chip was pretreated with running buffer (5% DMSO in phosphate buffered saline (PBS) at a pH of 7.4) and two consecutive 30 s pulses of 2:3 v/v 50 mM HCl/isopropanol at a flow rate of 30 μL/min. New liposome capture plates were prepared for each binding cycle. In PBS buffer, liposomes are diluted to 0.5–1 mM and captured to saturation in isolated flow cells at 2–5 μL/min (30–150 s). […]

SMILES | cleavage of the maytansinoid after incubation with plasma [1] | IC50 [2] | anti-HCC1806 tumor growth activity of free payload [3] | association with PS-coated liposomes (SPR) [4]
COc1cc2cc(c1Cl)N(C)C(=O)CC(OC(=O)C(C)N(C)C(=O)CCC(C)(C)SC(=O)c1ccc(CN(CCOCCOCCNC(=O)OC(C)(C)C)C(=O)C3(c4ccc(Cl)cc4)CCCCC3)cc1)C1(C)OC1C(C)C1CC(O)(NC(=O)O1)C(OC)C=CC=C(C)C2 [compound 4, (14R,16R,33R,2S,4S,10E,12Z,14S)-86-Chloro-14-hydroxy-85,14-dimethoxy-33,2,7,10-tetramethyl-12,6-dioxo-7-aza-1(6,4)-oxazinana-3(2,3)-oxirana-8(1,3)-benzenacyclotetradecaphane-10,12-dien-4-yl N-(4-((4-(2-(1-(4-chlorophenyl)cyclohexane-1-carbonyl)-14,14-dimethyl-12-oxo-5,8,13-trioxa-2,11-diazapentadecyl)benzoyl)thio)-4-methylpentanoyl)-N-methyl-D-alaninate] | No cleavage |  |  | 
COc1cc2cc(c1Cl)N(C)C(=O)CC(OC(=O)C(C)N(C)C(=O)CCC(C)(C)S)C1(C)OC1C(C)C1CC(O)(NC(=O)O1)C(OC)C=CC=C(C)C2 [DM4, (14R,16R,33R,2S,4S,10E,12Z,14S)-86-chloro-14-hydroxy-85,14-dimethoxy-33,2,7,10-tetramethyl-12,6-dioxo-7-aza-1(6,4)-oxazinana-3(2,3)-oxirana-8(1,3)-benzenacyclotetradecaphane-10,12-dien-4-yl N-(4-mercapto-4-methylpentanoyl)-N-methyl-D-alaninate, reference compound] |  | 0.007 µM | marginal improvement in its antitumor activity | 
COc1cc2cc(c1Cl)N(C)C(=O)C[C@H](OC(=O)[C@H](C)N(C)C(=O)CCSC(=O)c1ccc(CN(CCOCCOCCNC(=O)OC(C)(C)C)C(=O)C3(c4ccc(Cl)cc4)CCCCC3)cc1)[C@]1(C)O[C@H]1[C@H](C)[C@@H]1C[C@@](O)(NC(=O)O1)[C@H](OC)/C=C/C=C(\C)C2 [compound 3, (14R,16R,33R,2S,4S,10E,12Z,14S)-86-Chloro-14-hydroxy-85,14-dimethoxy-33,2,7,10-tetramethyl-12,6-dioxo-7-aza-1(6,4)-oxazinana-3(2,3)-oxirana-8(1,3)-benzenacyclotetradecaphane-10,12-dien-4-yl N-(3-((4-(2-(1-(4-chlorophenyl)cyclohexane-1-carbonyl)-14,14-dimethyl-12-oxo-5,8,13-trioxa-2,11-diazapentadecyl)benzoyl)thio)propanoyl)-N-methyl-L-alaninate] | No cleavage |  |  | 
COc1cc2cc(c1Cl)N(C)C(=O)C[C@H](OC(=O)[C@H](C)N(C)C(=O)CCS)[C@]1(C)O[C@H]1[C@H](C)[C@@H]1C[C@@](O)(NC(=O)O1)[C@H](OC)/C=C/C=C(\C)C2 [DM1, (14S,16S,32R,33S,2R,4S,10E,12E,14R)-86-chloro-14-hydroxy-85,14-dimethoxy-33,2,7,10-tetramethyl-12,6-dioxo-7-aza-1(6,4)-oxazinana-3(2,3)-oxirana-8(1,3)-benzenacyclotetradecaphane-10,12-dien-4-yl N-(3-mercaptopropanoyl)-N-methyl-D-alaninate, reference compound] |  | 0.021 µM |  | did not show association properties

Reference: article PMC9323955, “Synthesis and Evaluation of Small Molecule Drug Conjugates Harnessing Thioester-Linked Maytansinoids” (Pharmaceutics, 2022)
